Experimental data published in the METLIN SMRT retention time set (Domingo-Almenara et al. 2019).

Test: gradient 5% acetonitrile 3 min, to 50% in 2 min, to 85% in 15 min, held 3 min, 100 µL/min
Details: column: Zorbax Extend-C18 2.1 x 50 mm; eluents: water / acetonitrile, 0.1% formic acid
Outline: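 Retention time was recorded from adduct peaks, which were picked computationally and each inspected manually. Pure standards ran in mixtures of ~100 molecules on HPLC coupled to a quadrupole time-of-flight mass spectrometer, in positive and negative ionization mode, through a Zorbax Extend-C18 column (2.1 × 50 mm, 1.8 μm) at 100 μL/min. Eluents were water and acetonitrile, each with 0.1% formic acid.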

| SMILES | RP-LC retention time [s] |
| --- | --- |
| CCc1ccc(NS(=O)(=O)c2ccc3c(c2)CCCC(=O)N3)cc1 | 794 |
| Cc1cccc(OCc2nc(-c3ccc4c(c3)nnn4CCC(=O)N3CCOCC3)no2)c1 | 863 |
| CCn1cc(-c2ccc(F)cc2)cc1C(=O)N1CCCCC1 | 1060 |
| CC(=O)Nc1nc(-c2cccnc2)cs1 | 504 |
| Cc1cc2nn(CC(=O)N3CCCC3)c(=O)n2c(Nc2ccc(F)c(C)c2)n1 | 643 |
| Cc1ccc(-n2c(=O)n(CC(=O)NCCN3CCN(C)CC3)c3cccnc32)cc1 | 589 |
| O=C(CN1CCN(CC(=O)c2cccs2)CC1)Nc1cc(C(F)(F)F)ccc1Cl | 625 |
| O=C(CCn1cnc2ccccc2c1=O)N1CCN(CCn2cccn2)CC1 | 539 |
| O=C(CC1COc2ccccc2NC1=O)Nc1ccc2c(c1)OCCO2 (centres undefined) | 688 |
| O=C(c1ccc(Br)o1)N1CCCC(c2nnc(-c3ccccc3)o2)C1 (centres undefined) | 852 |
| Cc1ccc(S(=O)(=O)N2C(=O)CCC2C(=O)N(C)C2CCCCC2)cc1C (centres undefined) | 1010 |
| COc1ccc(S(=O)(=O)NCCc2ccc(N3CCCC3)cc2)cc1OC | 776 |
| COc1cccc(-n2c(=O)c3sccc3n(Cc3nc(-c4ccc(F)cc4)no3)c2=O)c1 | 952 |
| CC(=O)Nc1cccc(N2CC(C(=O)Nc3ccc(OC(F)(F)F)cc3)CC2=O)c1 (centres undefined) | 760 |
| CCOC(=O)c1c(C)oc2ncnc(Nc3cc(Cl)ccc3OC)c12 | 1360 |
| O=S(=O)(c1cccs1)N1CCC(n2cnnc2-c2ccccc2)CC1 | 744 |
| CCN(CC)CCCNC(=O)CCc1c(-c2ccc(Cl)cc2)nc2ccccn12 | 558 |
| COCCN1CCC(N2CCCN(C(=O)Cc3c[nH]c4ccccc34)CC2)C1=O (centres undefined) | 576 |
| CC(C)CC(=O)Nc1cc2c(cc1S(=O)(=O)c1ccccc1)n(C)c(=O)n2C | 786 |
| Cc1nnc(N2CCCC(C(=O)NCCc3cccs3)C2)c2nn(-c3ccc(Cl)cc3)c(C)c12 (centres undefined) | 762 |
| Cc1ccc(C)c(N2CCN(c3ccc4cc(S(=O)(=O)N5CCCCC5)ccc4n3)CC2)c1 | 1360 |
| CCOC(=O)c1ccc(NC(=O)c2sccc2S(=O)(=O)N(C)c2ccc(OCC)cc2)cc1 | 1230 |
| Cc1nnc(NC(=O)CNC(=O)c2ccc(=O)[nH]c2)s1 | 520 |

| SMILES | RP-LC retention time [s] |
| --- | --- |
| CCc1ccc(-c2ccc(=O)n(CCc3nc(-c4ccc(F)cc4)no3)n2)cc1 | 1120 |
| O=C(NC1CCCN(c2ccc(=O)[nH]n2)C1)C1(S(=O)(=O)c2ccc(Cl)cc2)CC1 (centres undefined) | 712 |
| Cc1ccccc1CN1CCCN(c2ncccc2-c2nc(C3CC3)no2)CC1 | 711 |
| CCn1c(=O)c(C(=O)NCc2ccccc2OC)nc2cccnc21 | 800 |
| CCCOc1ccc(C(=O)Nc2cnn(CC)c(=O)c2N2CCOCC2)cc1 | 954 |
| O=S(=O)(c1cccc(-c2nnc(-c3ccccc3Br)o2)c1)N1CCCC1 | 1040 |
| Cn1cccc1C(=O)N1CC[C@H](n2c(=O)n(C)c3cccnc32)C1 | 695 |
| O=C(Cc1csc2nc(-c3ccccc3)cn12)N1CCN(c2ccccc2F)CC1 | 869 |
| O=C(CSc1ccc(-n2ccnc2)nn1)Nc1ccc(OC(F)(F)F)cc1 | 618 |
| Cc1ccc(CNc2nc(-c3nnc(-c4ccccc4)o3)nc3ccccc23)o1 | 991 |
| COC(=O)c1ccc(Cl)cc1NC(=O)N(C)CCc1c(C)nn(C)c1C | 873 |
| CCc1ccc(-c2noc(CSc3nc4cc5c(cc4c(=O)n3Cc3ccncc3)OCO5)n2)cc1 | 909 |
| COCCN1CC2CN(C(=O)Nc3ccc4c(c3)OCCO4)CC(C1)O2 | 580 |
| CCc1cc(=O)n(CC(=O)Nc2ccc(C)cc2C)c(N)n1 | 631 |
| CCc1nc2c(sc3nc(-c4ccccc4)ccc32)c(=O)n1CC(=O)N1CCc2ccccc2C1 | 1170 |
| Cc1ccccc1Oc1ccc(S(=O)(=O)NCCC(=O)O)cc1 | 759 |
| CCc1nnc2cc(N3CCN(C(=O)Nc4ccc(C)cc4)CC3)cnn12 | 649 |
| O=C(NCc1cccc(Cl)c1)c1c(O)c2cccnc2[nH]c1=O | 954 |
| Cc1ccc(N2C(=O)CCS2(=O)=O)cc1S(=O)(=O)N1CCC(C(N)=O)CC1 | 638 |
| Cc1oc(C2CCN(C(=O)Nc3ccc(Cl)cc3F)CC2)nc1C(=O)N1CCCCC1 | 885 |
| Cc1ccc(C)c(N2CCN(c3cc(C(=O)O)c4cc(NS(C)(=O)=O)ccc4n3)CC2)c1 | 1110 |
| O=C(Nc1ccc(CC(=O)N2CCC(O)CC2)cc1)C1CCC1 | 588 |
| CCN(CC)C(=O)Cn1nc(-c2nc(-c3ccc(F)cc3)no2)ccc1=O | 861 |

| SMILES | RP-LC retention time [s] |
| --- | --- |
| O=C(c1cnccn1)N1CC(c2nc(-c3cccs3)no2)C1 | 693 |
| COc1ccc(Cn2nc3ccc(S(=O)(=O)N4CCCCCC4)cn3c2=O)cc1 | 935 |
| O=C(Nc1ccccc1)N1CCC(n2c(-c3ccco3)nc3cccnc32)C1 (centres undefined) | 716 |
| Cc1ccccc1OCc1nc(-c2ccc3c(c2)oc(=O)n3C(C)C)no1 | 1160 |
| Cc1ccc(C2Cn3nnc(-c4nc(-c5ccc6c(c5)OCO6)no4)c3CO2)c(C)c1 (centres undefined) | 1250 |
| COc1cccc(CNC(=O)Cn2cnc3nc(N4CCCC(C(=O)NC5CC5)C4)sc3c2=O)c1 (centres undefined) | 666 |
| CCOC(=O)Cn1c(C2CC(=O)N(c3ccccc3Cl)C2)nc2ccccc21 (centres undefined) | 761 |
| O=C(CCNc1c(-c2ccccc2)nc2cnccn12)N1CCC(N2CCCCC2)CC1 | 552 |
| O=C1CN(S(=O)(=O)c2cccc(Cl)c2)CC2(CCOCC2)N1CC1CC1 | 877 |
| CCOc1cccc(-c2noc(Cn3cnc4c(cnn4-c4ccc(OC)cc4)c3=O)n2)c1 | 1090 |
| O=C(NC1CCN(Cc2ccccc2)CC1)c1cc2c(=O)n(Cc3ccccc3)ccc2s1 | 688 |
| CCCCn1nnc(NCc2ccc(-c3ccc(Cl)cc3Cl)o2)n1 | 1280 |
| COc1ccc(N2CCN(S(=O)(=O)c3cc(-c4csc(C)n4)ccc3C)CC2)cc1 | 1130 |
| Cc1ccc(-c2noc(-c3ccc4c(c3)OCCO4)n2)cc1 | 1250 |
| CCCc1noc(-c2ccc(-n3ncc(C(=O)NC4CCCC4)c3C)nc2)n1 | 1030 |
| Cc1ccc(Cn2cccc2C(=O)C(=O)NCc2ccco2)cc1C | 1070 |
| CC1(C(=O)NCc2ccc(F)cc2)CN(S(C)(=O)=O)CC(=O)N1Cc1ccc(F)cc1 (centres undefined) | 841 |
| O=C(Cn1c(C(F)(F)F)nc2cc3c(cc21)OCCO3)Nc1ccccc1 | 867 |
| Cc1cccc(CSc2nnc3c(S(=O)(=O)N4CCCC4)cccn23)c1 | 883 |
| Clc1cccc(Cc2nc(-c3ccc(-n4ccnc4)nc3)no2)c1 | 764 |
| c1ccc2c(c1)Nc1ccncc1S2 | 634 |
| O=C(NCC1CC(=O)N(Cc2ccc(F)cc2)C1)Nc1cccs1 (centres undefined) | 668 |
| Cc1nc(-c2cc(S(=O)(=O)NCCN3CCC(C)CC3)c(C)s2)sc1C | 718 |

| SMILES | RP-LC retention time [s] |
| --- | --- |
| COc1ccc2c(c1)C(OC(C)C)=C(C(N)=O)S2=O (centres undefined) | 623 |
| C=CCN1CC[C@]2(C)c3cc(O)ccc3CC1[C@@H]2C | 594 |
| COc1nc2ccccc2nc1N1CCCC(C(=O)NCc2ccco2)C1 (centres undefined) | 951 |
| O=C(Nc1nnc(Cc2ccccc2)s1)C1CCN(C(=O)c2cccc(F)c2)CC1 | 798 |
| Cc1ccc(-c2nc3cnccn3c2NCCC(=O)NCC(C)C)cc1 | 690 |
| COc1ccc(Cl)cc1C(=O)NCCOc1ccc(F)cc1 | 925 |
| Cc1[nH]c2ccccc2c1C(=O)C(=O)NC(C)c1ccccc1 (centres undefined) | 794 |
| Cc1ccc(-c2nnc(N3CCC(C(=O)NC(C)c4ccccc4)CC3)o2)cc1 (centres undefined) | 886 |
| Cc1ccc2[nH]cc(CCN3CC(C(=O)Nc4cccc(F)c4)CC3=O)c2c1 (centres undefined) | 842 |
| CC1CCCN(c2ccc(-c3noc(CN4CCC5(CC4)OCCO5)n3)cn2)C1 (centres undefined) | 680 |
| COC(=O)c1nnn(-c2ccccc2C(F)(F)F)c1N | 936 |
| COc1cc(-c2ccccc2)nc2ccc(NC(=O)COc3ccc(F)cc3)cc12 | 776 |
| CN(CC1CCOC1)C(=O)Nc1ccc(F)c(Cl)c1 (centres undefined) | 709 |
| COCCCNC(=O)C1CCCN(c2cnc3nccnc3c2)C1 (centres undefined) | 602 |
| O=C(COc1ccc(F)cc1)Nc1nc(CN2CCc3ccccc3C2)cs1 | 608 |
| Cc1c2cnn(-c3ccccc3)c(=O)c2c(C)n1CCCC(=O)NCC1CCCO1 (centres undefined) | 687 |
| CC1(C(=O)NCc2ccccc2)CCCN(C(=O)Nc2cccc(Cl)c2)C1 (centres undefined) | 966 |
| CN(C)c1ccc2c(c1)OC(N)=C(C#N)C2c1cccc(C(F)(F)F)c1 (centres undefined) | 1020 |
| CC(C)NC(=O)Nc1cccc(Cl)c1 | 854 |
| O=C(Nc1ccc(Oc2ccc(NC(=O)Nc3ccc([N+](=O)[O-])cc3)cc2)cc1)Nc1ccc([N+](=O)[O-])cc1 | 1110 |
